Data as given in patent US20020160066A1, “Composition and methods containing an antimicrobial essential oil extracted from Coleus forskohlii” (priority 2001, published 2002).

Tests used:
[1] = tested on: E. coli; assay: Second study, disk clearance zone, E. coli; format: cell-based; settings: Escherichia coli; 30 μg/disk
[2] = tested on: Staphylococcus aureus; assay: Second study, disk clearance zone, Staphylococcus aureus; format: cell-based; settings: 30 μg/disk
Text: Determination of the antimicrobial activity of the composition. The sensitivity of Propionbacterium acnes a microorganism associated with acne and other skin infections (Nishijima, et al. (2000)), Staphylococcus aureus a bacterial strain found in infected wounds and skin eruptions including acne (Nishijima, et al. 1994)), Staphylococcus epidermidis a bacterial strain occurring in a variety of opportunistic bacterial skin infections and in acne (Nishijima, S. et al. (2000)) and Streptococcus mutans, a bacterial strain associated with the progression of dental caries (Sanchez-Perez, L. et al. (2001)), Candida albican, and Streptococcus epidermidis; to Coleus forskohlii oil using disk diffusion methodology was determined. One strain each of Propionbacterium acnes (ATCC 11827), Staphylococcus aureus (ATCC 29213), Streptococcus mutans (ATCC 25175), and Staphylococcus epidermidis (ATCC 14990) Candida albicans (ATCC 11006) and Streptococcus epidermidis (ATCC 14990) were obtained from ATCC. Propionbacterium acnes culture were grown in Reinforced Clostridia media under anaerobic conditions at 37° C. for 24 hours. Staphylococcus aureus, Streptococcus mutans and Staphylococcus epidermidis cultures were cultured in Trypticase Soy Broth under aerobic conditions at 37° C. for 24 hours. […] Inhibition zones were measured to the closest one tenth of one millimeter using a caliper. […]

Question: Which zone of inhibition at 30 µg/disc [1] does the source give for O=C(N[C@H](CO)[C@H](O)c1ccc([N+](=O)[O-])cc1)C(Cl)Cl [Chloramphenicol] here?
Answer: 34 mm

Question: And the zone of inhibition at 30 µg/disc [2]?
Answer: 20 mm
